Measured values taken from US20150031693A1, “PAK INHIBITORS FOR THE TREATMENT OF FRAGILE X SYNDROME” (AFRAXIS HOLDINGS, INC., priority 2011, published 2015).

Tests used:
PAK1 [1] = biological target: T1, PAK1 (Homo sapiens, UniProt Q13153); assay: In vitro PAK inhibition assay (Z'-LYTE), PAK1; format: biochemical
Procedure: (§1) In Vitro PAK Inhibition Assay
(§2) Compounds are screened in 1% DMSO (final) in the well. For 10 point titrations, 3-fold serial dilutions are conducted. All Peptide/Kinase Mixtures are diluted to a 2× working concentration in the appropriate Kinase Buffer
(§3) The 2× PAK1/Ser/Thr 19 mixture is prepared in 50 mM HEPES pH 7.5, 0.01% BRIJ-35, 10 mM MgCl2, 1 mM EGTA. The final 10 μL Kinase Reaction consists of 2.71-30.8 ng PAK1 and 2 μM Ser/Thr 19 in 50 mM HEPES pH 7.5, 0.01% BRIJ-35, 10 mM MgCl2, 1 mM EGTA. After the 1 hour Kinase Reaction incubation, 5 μL of a 1:128 dilution of Development Reagent A is added.
(§4) Bar-coded Corning, low volume NBS, black 384-well plate (Corning Cat. #3676) • 1. Add the following solutions to a well in a 384-well plate: 2.5 μL of 4× Test Compound OR (100 nL 100× Test Compound plus 2.4 μL kinase buffer) • 5 μL of 2× Peptide/Kinase (PAK) Mixture • 2.5 μL of 4× ATP Solution • 2. Shake the plate for 30-seconds • 3. Incubate the PAK Kinase Reaction at room temperature for 60-minutes • 4. Add 5 μL of Development Reagent Solution to each well • 5. Shake the plate for 30-seconds • 6. Incubate the Development Reaction for 60-minutes • 7. Determine the fluorescence using a fluorescence plate reader • 8. Analyze the fluorescence data
(§5) SelectScreen® Kinase Profiling Service uses XLfit from IDBS. The dose response curve is curve fit to model number 205 (sigmoidal dose-response model).
(§6) The table below provides specifications and data around each kinase. The representative IC50 value with a known inhibitor for each kinase was determined at the ATP bin nearest to the ATP Km app.

PAK2 (PAK65) = PAK2 (PAK65) (Homo sapiens, UniProt Q13177); assay: In vitro PAK inhibition assay (Z'-LYTE), PAK2; format: biochemical
Sequence of PAK2 (PAK65) (Q13177 whole entry): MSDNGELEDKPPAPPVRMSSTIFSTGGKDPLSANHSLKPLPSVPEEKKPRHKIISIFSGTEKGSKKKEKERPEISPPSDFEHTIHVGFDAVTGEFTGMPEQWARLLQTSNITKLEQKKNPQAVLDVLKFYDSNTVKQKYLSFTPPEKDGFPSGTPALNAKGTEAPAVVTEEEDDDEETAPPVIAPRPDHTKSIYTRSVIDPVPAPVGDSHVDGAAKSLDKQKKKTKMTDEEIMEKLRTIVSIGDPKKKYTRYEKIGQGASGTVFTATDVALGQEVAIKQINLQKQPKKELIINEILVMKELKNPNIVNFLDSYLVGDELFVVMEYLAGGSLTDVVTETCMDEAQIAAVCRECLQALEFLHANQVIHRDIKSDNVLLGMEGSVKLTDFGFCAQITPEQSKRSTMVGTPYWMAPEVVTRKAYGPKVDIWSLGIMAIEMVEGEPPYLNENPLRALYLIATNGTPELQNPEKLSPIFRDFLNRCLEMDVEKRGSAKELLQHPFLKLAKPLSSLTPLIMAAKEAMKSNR
Procedure: as §1, §2
as §3, with “PAK2 (PAK65)/Ser/Thr 20” for “PAK1/Ser/Thr 19”, “0.29-6” for “2.71-30.8”, “PAK2 (PAK65)” for “PAK1”, “20” for “19”, “1:256” for “1:128”
as §4, §5, §6

PAK3 = PAK3 (Homo sapiens, UniProt O75914); assay: In vitro PAK inhibition assay (Z'-LYTE), PAK3; format: biochemical
Sequence of PAK3 (O75914 whole entry): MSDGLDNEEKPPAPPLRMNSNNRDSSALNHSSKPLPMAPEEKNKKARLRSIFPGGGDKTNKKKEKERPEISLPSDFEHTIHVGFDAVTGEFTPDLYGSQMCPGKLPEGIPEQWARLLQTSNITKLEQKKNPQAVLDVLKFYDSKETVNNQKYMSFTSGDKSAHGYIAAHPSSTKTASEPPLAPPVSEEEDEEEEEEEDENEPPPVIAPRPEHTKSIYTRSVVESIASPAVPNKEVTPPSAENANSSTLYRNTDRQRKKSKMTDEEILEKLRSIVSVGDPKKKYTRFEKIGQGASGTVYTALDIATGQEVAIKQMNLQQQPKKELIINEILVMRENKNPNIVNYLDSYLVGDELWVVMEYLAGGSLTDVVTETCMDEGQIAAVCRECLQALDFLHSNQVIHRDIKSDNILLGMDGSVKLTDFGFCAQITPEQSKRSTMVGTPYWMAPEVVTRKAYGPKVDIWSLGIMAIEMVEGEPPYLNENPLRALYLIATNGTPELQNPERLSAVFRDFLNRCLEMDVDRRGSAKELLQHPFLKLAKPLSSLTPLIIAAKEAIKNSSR
Procedure: as §1, §2
as §3, with “PAK3/Ser/Thr 20” for “PAK1/Ser/Thr 19”, “2.25-22” for “2.71-30.8”, “PAK3” for “PAK1”, “20” for “19”, “1:256” for “1:128”
as §4, §5, §6

PAK4 [2] = biological target: T2, PAK4 (Homo sapiens, UniProt O96013); assay: In vitro PAK inhibition assay (Z'-LYTE), PAK4; format: biochemical
T2 sequence (O96013 whole entry): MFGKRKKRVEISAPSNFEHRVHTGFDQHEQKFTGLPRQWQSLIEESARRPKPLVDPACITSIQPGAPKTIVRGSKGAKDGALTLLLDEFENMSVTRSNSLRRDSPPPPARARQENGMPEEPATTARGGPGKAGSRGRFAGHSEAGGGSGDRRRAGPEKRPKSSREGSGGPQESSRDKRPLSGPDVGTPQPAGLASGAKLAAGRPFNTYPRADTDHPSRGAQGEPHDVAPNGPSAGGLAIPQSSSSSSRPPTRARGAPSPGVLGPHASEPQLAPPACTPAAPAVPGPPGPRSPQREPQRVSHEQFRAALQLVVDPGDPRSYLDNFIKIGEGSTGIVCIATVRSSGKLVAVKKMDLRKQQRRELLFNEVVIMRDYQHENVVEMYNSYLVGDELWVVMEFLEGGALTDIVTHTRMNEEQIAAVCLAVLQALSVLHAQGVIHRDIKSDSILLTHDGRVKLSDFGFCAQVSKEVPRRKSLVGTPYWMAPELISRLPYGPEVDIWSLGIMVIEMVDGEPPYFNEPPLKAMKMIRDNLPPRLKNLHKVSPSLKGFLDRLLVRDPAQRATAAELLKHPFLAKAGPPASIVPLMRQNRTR
Procedure: as §1, §2
as §3, with “PAK4/Ser/Thr 20” for “PAK1/Ser/Thr 19”, “0.1-0.75” for “2.71-30.8”, “PAK4” for “PAK1”, “20” for “19”, “1:256” for “1:128”
as §4, §5, §6

p-MEK1(S298) = assay: In vitro cellular HTRF assay for p-MEK1(S298); format: cell-based; details: cell line RT4-D6P2T, read-out: pMEK1(S298)
Text: (§7) In Vitro p-PAK1(S144) and p-MEK1(S298) Cellular Assay
(§8) The cell line is RT4-D6P2T.

p-PAK1(S144) = assay: In vitro cellular HTRF assay for p-PAK1(S144); format: cell-based; details: cell line RT4-D6P2T, read-out: pPAK1(S144)
Text: as §7, §8

PAK1 [3] = biological target: T1, PAK1; assay: Additional in vitro PAK inhibition assay, PAK1; format: biochemical
Procedure: (§9) Additional In Vitro PAK Inhibition Assay
(§10) Similar in vitro PAK1 and PAK4 inhibition assay was conducted in compounds for the treatment of Fragile X syndrome, but under ATP concentrations of 10 uM and 1 mM.

PAK4 [4] = biological target: T2, PAK4; assay: Additional in vitro PAK inhibition assay, PAK4; format: biochemical; details: 10 μM ATP
Procedure: as §9, §10

T1 sequence (Q13153 whole entry): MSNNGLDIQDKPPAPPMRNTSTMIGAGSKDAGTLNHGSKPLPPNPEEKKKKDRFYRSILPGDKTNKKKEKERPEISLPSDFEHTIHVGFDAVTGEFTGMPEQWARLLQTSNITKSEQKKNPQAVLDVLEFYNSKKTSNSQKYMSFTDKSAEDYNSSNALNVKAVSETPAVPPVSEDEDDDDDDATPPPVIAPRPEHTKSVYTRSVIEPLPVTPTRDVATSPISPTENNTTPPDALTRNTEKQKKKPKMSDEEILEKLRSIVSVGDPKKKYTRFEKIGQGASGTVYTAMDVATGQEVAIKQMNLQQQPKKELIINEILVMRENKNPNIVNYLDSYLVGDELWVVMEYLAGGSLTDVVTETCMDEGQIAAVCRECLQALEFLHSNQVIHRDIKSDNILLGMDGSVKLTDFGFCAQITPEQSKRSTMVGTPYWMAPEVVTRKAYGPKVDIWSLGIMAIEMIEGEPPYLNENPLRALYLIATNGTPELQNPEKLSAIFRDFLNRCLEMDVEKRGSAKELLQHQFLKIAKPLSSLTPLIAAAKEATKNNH

SMILES | IC50 (PAK1 [1]) [nM] | IC50 (PAK2 (PAK65)) [nM] | IC50 (PAK3) [nM] | IC50 (PAK4 [2]) [nM] | IC50 (p-MEK1(S298)) [nM] | IC50 (p-PAK1(S144)) [nM] | IC50 (PAK1 [3]; 10 μM ATP, read-out: PAK1 IC50 (10 μM ATP)) [nM] | IC50 (PAK1 [3]; 1 mM ATP, read-out: PAK1 IC50 (1 mM ATP)) [nM] | IC50 (PAK4 [4]) [nM]
CCn1c(=O)c(-c2ccc(-c3cncc(C)n3)cc2Cl)cc2cnc(NCCCO)nc21 [Example 1, 6-(2-chloro-4-(6-methylpyrazin-2-yl)phenyl)-8-ethyl-2-((3-hydroxypropyl)amino)pyrido[2,3-d]pyrimidin-7(8H)-one] | 50 to 500 | 50 to 500 | 50 to 500 | > 5000 |  |  |  |  | 
Cc1cncc(-c2ccc(-c3cc4cnc(NC(CCO)CCO)nc4n(Cc4ccccc4C(F)(F)F)c3=O)c(Cl)c2)n1 [Example 2] | 50 to 500 | 50 to 500 | 50 to 500 | > 5000 |  |  |  |  | 
CCn1c(=O)c(-c2ccc(-c3nccnc3C)cc2Cl)cc2cnc(NCCCOC)nc21 [Example 9] | 50 to 500 | 50 to 500 | 500 to 5000 | > 5000 |  |  |  |  | 
CCn1c(=O)c(-c2ccc(-c3nccnc3C)cc2Cl)cc2cnc(NCCO)nc21 [Example 6] | 50 to 500 | 50 to 500 | 50 to 500 | > 5000 |  |  |  |  | 
CCn1c(=O)c(-c2ccc(-c3cncc(C)n3)cc2Cl)cc2cnc(NCCO)nc21 [Example 7] | 50 to 500 | 50 to 500 | 50 to 500 | > 5000 |  |  |  |  | 
CCn1c(=O)c(-c2ccc(-c3nccnc3C)cc2Cl)cc2cnc(NC(CCO)CCO)nc21 [Example 5] | 500 to 5000 | 500 to 5000 | 500 to 5000 | > 5000 |  |  |  |  | 
CCn1c(=O)c(-c2ccc(-c3cncc(C)n3)cc2Cl)cc2cnc(NCCOC)nc21 [Example 11] | 50 to 500 | 50 to 500 | 500 to 5000 | > 5000 |  |  |  |  | 
CCn1c(=O)c(-c2ccc(-c3cncc(C)n3)cc2Cl)cc2cnc(N[C@H]3CC[C@H](CN(C)C)CC3)nc21 |  |  |  |  | 500 to 5000 | 500 to 5000 |  |  | 
CCn1c(=O)c(-c2ccc(-c3cncc(C)n3)cc2Cl)cc2cnc(NCCCOC)nc21 [Example 10] | 50 to 500 | 50 to 500 | 50 to 500 | > 5000 |  |  |  |  | 
CCn1c(=O)c(-c2ccc(-c3nccnc3C)cc2Cl)cc2cnc(NCCOC)nc21 [Example 8] | 50 to 500 | 50 to 500 | 500 to 5000 | > 5000 |  |  |  |  | 
CCn1c(=O)c(-c2ccc(-c3cncc(C)n3)cc2Cl)cc2cnc(NC(CCO)CCO)nc21 [Example 4] | 500 to 5000 | 50 to 500 | 500 to 5000 | > 5000 |  |  |  |  | 
CCn1c(=O)c(-c2ccc(-c3noc(C)n3)cc2Cl)cc2cnc(N[C@@H]3COC[C@@H]3N3CCN(C)CC3)nc21 |  |  |  |  |  |  | 50 to 500 | > 5000 | > 5000
CCn1c(=O)c(-c2ccc(-c3nccnc3C)cc2Cl)cc2cnc(NCCCO)nc21 [Example 3] | 50 to 500 | 50 to 500 | 50 to 500 | > 5000 |  |  |  |  | 
